Measured values reported in PMC10216305, “Introduction of a Polyethylene Glycol Linker Improves Uptake of ^67Cu-NOTA-Conjugated Lactam-Cyclized Alpha-Melanocyte-Stimulating Hormone Peptide in Melanoma” (Cancers, 2023).
Positions of bridges follow the written chain, without caps; N, C: chain ends. Non-standard residues stand in square brackets, D forms with d. Residues, ends and D or L forms follow the SMILES beside them. *: point of attachment. NOTA = O=C(O)CN1CCN(CC(=O)O)CCN(CC(=O)*)CC1; Nle = CCCC[C@H](N)C(=O)O

Test: in vivo
Set-up: species or system mice
Conditions: C57, mouse, iv, total radioactivity
Description: All animal studies were conducted in compliance with Institutional Animal Care and Use Committee approval. C57 mice were purchased from Charles River Laboratory (Wilmington, NC). B16/F10 melanoma-bearing C57 mice were generated according to our previous publication. Each melanoma-bearing mouse was injected with 0.037 MBq of ^67Cu-NOTA-PEG2Nle-CycMSHhex or ^67Cu-NOTA-GGNle-CycMSHhex via the tail vein. The tumor uptake specificity of ^67Cu-NOTA-PEG2Nle-CycMSHhex and ^67Cu-NOTA-GGNle-CycMSHhex was determined by co-injecting 10 μg (6.07 nmol) of unlabeled NDP-MSH. Mice were sacrificed at 0.5, 2, 4, and 24 h post-injection, and tumors and organs of interest were harvested, weighed, and counted. The blood value was taken as 6.5% of the whole-body weight.

[1] = 0.037 MBq, Kidneys uptake (renal uptake)
[2] = 0.037 MBq, Normal organ uptake, except for kidney uptake
[3] = 0.037 MBq, Tumor/liver ratio as times the tumor/liver ratio of ^67Cu-NOTA-GGNle-CycMSHhex
[4] = 0.037 MBq, Uptake ratio Tumor/blood
[5] = 0.037 MBq, Uptake ratio Tumor/kidney
[6] = 0.037 MBq, Uptake ratio Tumor/liver
[7] = 0.037 MBq, Uptake ratio Tumor/lung
[8] = 0.037 MBq, Uptake ratio Tumor/muscle

CCCC[C@H](NC(=O)COCCOCCNC(=O)CN1CCN(CC(=O)O)CCN(CC(=O)O)CC1)C(=O)N[C@H]1CC(=O)NCCCC[C@@H](C(N)=O)NC(=O)[C@H](Cc2c[nH]c3ccccc23)NC(=O)[C@H](CCCNC(=N)N)NC(=O)[C@@H](Cc2ccccc2)NC(=O)[C@H](Cc2c[nH]cn2)NC1=O [^67Cu-NOTA-PEG2Nle-CycMSHhex, ^67Cu-1,4,7-triazacyclononane-1,4,7-triyl-triacetic acid-polyethylene glycol-Nle-c[Asp-His-DPhe-Arg-Trp-Lys]-CONH2, metal not drawn]
tissue uptake dose at 0.5 h (0.037 MBq): 0.83 ± 0.09 %ID | tissue uptake dose at 2 h (0.037 MBq): 0.95 ± 0.16 %ID | tissue uptake dose at 24 h (0.037 MBq): 0.77 ± 0.12 %ID | tissue uptake at 0.5 h (0.037 MBq, Blood uptake): 0.63 ± 0.26 %ID/g | tissue uptake at 0.5 h (0.037 MBq, Bone uptake): 0.6 ± 0.35 %ID/g | tissue uptake at 0.5 h (0.037 MBq, Brain uptake): 0.04 ± 0.02 %ID/g | tissue uptake at 24 h (0.037 MBq, Brain uptake): 0.04 ± 0.03 %ID/g | tissue uptake at 0.5 h (0.037 MBq, Heart uptake): 0.58 ± 0.18 %ID/g | tissue uptake at 2 h (0.037 MBq, Heart uptake): 0.79 ± 0.06 %ID/g | tissue uptake at 4 h (0.037 MBq, Heart uptake): 0.34 ± 0.08 %ID/g | tissue uptake at 0.5 h [1]: 6.43 ± 1.31 %ID/g | tissue uptake at 2 h [1]: 6.34 ± 1.63 %ID/g | tissue uptake at 4 h [1]: 2.6 ± 0.79 %ID/g | tissue uptake at 0.5 h (0.037 MBq, Liver uptake): 0.95 ± 0.19 %ID/g | tissue uptake at 2 h (0.037 MBq, Liver uptake): 1.09 ± 0.14 %ID/g | tissue uptake at 4 h (0.037 MBq, Liver uptake): 1.41 ± 0.26 %ID/g | tissue uptake at 24 h (0.037 MBq, Liver uptake): 0.84 ± 0.15 %ID/g | tissue uptake at 0.5 h (0.037 MBq, Lung uptake): 0.76 ± 0.16 %ID/g | tissue uptake at 4 h (0.037 MBq, Lung uptake): 0.62 ± 0.18 %ID/g | tissue uptake at 0.5 h (0.037 MBq, Muscle uptake): 0.48 ± 0.12 %ID/g | tissue uptake at 2 h [2]: < 2 %ID/g | tissue uptake at 4 h [2]: < 2.6 %ID/g | tissue uptake at 0.5 h (0.037 MBq, Skin uptake): 1.77 ± 0.28 %ID/g | tissue uptake at 4 h (0.037 MBq, Skin uptake): 0.18 ± 0.07 %ID/g | tissue uptake at 0.5 h (0.037 MBq, Spleen uptake): 0.37 ± 0.1 %ID/g | tissue uptake at 0.5 h (0.037 MBq, Stomach uptake): 1.13 ± 0.36 %ID/g | tissue uptake at 0.5 h (0.037 MBq, Tumor uptake): 8.83 ± 2.19 %ID/g | tissue uptake at 4 h (0.037 MBq, Tumor uptake): 24.1 ± 1.83 %ID/g | tissue uptake at 24 h (0.037 MBq, Tumor uptake): 9.13 ± 1.66 %ID/g | tissue to tissue ratio at 2 h [3]: 3.3 | tissue to tissue ratio at 4 h [3]: 2 | tissue to tissue ratio at 24 h [3]: 1.8 | tissue to tissue ratio at 4 h [4]: 482 | tissue to tissue ratio at 24 h [4]: 456 | tissue to tissue ratio at 0.5 h [5]: 1.37 | tissue to tissue ratio at 2 h [5]: 4.41 | tissue to tissue ratio at 4 h [5]: 9.27 | tissue to tissue ratio at 24 h [5]: 10.1 | tissue to tissue ratio at 0.5 h [6]: 9.29 | tissue to tissue ratio at 2 h [6]: 25.7 | tissue to tissue ratio at 4 h [6]: 17.1 | tissue to tissue ratio at 0.5 h [7]: 11.6 | tissue to tissue ratio at 2 h [7]: 52.8 | tissue to tissue ratio at 4 h [7]: 38.9 | tissue to tissue ratio at 24 h [7]: 26.1 | tissue to tissue ratio at 0.5 h [8]: 18.4 | tissue to tissue ratio at 2 h [8]: 34.5 | tissue to tissue ratio at 4 h [8]: 803 | tissue to tissue ratio at 24 h [8]: 913 | tissue uptake dose at 2 h: 2.09 ± 0.96 %ID | tissue to tissue ratio at 2 h (Uptake ratio Tumor/kidney): 0.34 | tissue to tissue ratio at 2 h (Uptake ratio Tumor/liver): 0.98 | tissue to tissue ratio at 2 h (Uptake ratio Tumor/lung): 2.44 | tissue to tissue ratio at 2 h (Uptake ratio Tumor/muscle): 166

CCCC[C@H](NC(=O)CNC(=O)CNC(=O)CN1CCN(CC(=O)O)CCN(CC(=O)O)CC1)C(=O)N[C@H]1CC(=O)NCCCC[C@@H](C(N)=O)NC(=O)[C@H](Cc2c[nH]c3ccccc23)NC(=O)[C@H](CCCNC(=N)N)NC(=O)[C@@H](Cc2ccccc2)NC(=O)[C@H](Cc2c[nH]cn2)NC1=O [^67Cu-NOTA-GGNle-CycMSHhex, ^67Cu-NOTA-GlyGlyNle-CycMSHhex, metal not drawn] ({NOTA}-GG[Nle]DH[dF]RWK-NH2; lactam 4-9)
tissue uptake dose at 0.5 h (0.037 MBq): 1.46 ± 0.49 %ID | tissue uptake dose at 2 h (0.037 MBq): 1.3 ± 0.27 %ID | tissue uptake dose at 4 h (0.037 MBq): 2.7 ± 0.26 %ID | tissue uptake dose at 24 h (0.037 MBq): 0.94 ± 0.32 %ID | tissue uptake at 0.5 h (0.037 MBq, Blood uptake): 1.22 ± 0.08 %ID/g | tissue uptake at 4 h (0.037 MBq, Blood uptake): 0.06 ± 0.07 %ID/g | tissue uptake at 0.5 h (0.037 MBq, Bone uptake): 0.68 ± 0.1 %ID/g | tissue uptake at 4 h (0.037 MBq, Bone uptake): 0.06 ± 0.06 %ID/g | tissue uptake at 4 h (0.037 MBq, Brain uptake): 0.02 ± 0.03 %ID/g | tissue uptake at 24 h (0.037 MBq, Brain uptake): 0.02 ± 0.02 %ID/g | tissue uptake at 0.5 h [1]: 7.18 ± 2.63 %ID/g | tissue uptake at 2 h [1]: 5.08 ± 1.52 %ID/g | tissue uptake at 4 h [1]: 4.21 ± 0.92 %ID/g | tissue uptake at 24 h [1]: 1.19 ± 0.28 %ID/g | tissue uptake at 0.5 h (0.037 MBq, Liver uptake): 1.15 ± 0.07 %ID/g | tissue uptake at 2 h (0.037 MBq, Liver uptake): 1.49 ± 0.56 %ID/g | tissue uptake at 24 h (0.037 MBq, Liver uptake): 0.82 ± 0.12 %ID/g | tissue uptake at 2 h [2]: < 2 %ID/g | tissue uptake at 2 h (0.037 MBq, Pancreas uptake): 0.12 ± 0.08 %ID/g | tissue uptake at 24 h (0.037 MBq, Pancreas uptake): 0.02 ± 0.01 %ID/g | tissue uptake at 24 h (0.037 MBq, Skin uptake): 0.02 ± 0.01 %ID/g | tissue uptake at 0.5 h (0.037 MBq, Spleen uptake): 0.52 ± 0.32 %ID/g | tissue uptake at 4 h (0.037 MBq, Spleen uptake): 0.12 ± 0.08 %ID/g | tissue uptake at 0.5 h (0.037 MBq, Stomach uptake): 1.53 ± 0.53 %ID/g | tissue uptake at 2 h (0.037 MBq, Stomach uptake): 0.81 ± 0.14 %ID/g | tissue uptake at 0.5 h (0.037 MBq, Tumor uptake): 16.6 ± 1.4 %ID/g | tissue uptake at 4 h (0.037 MBq, Tumor uptake): 8.79 ± 1.31 %ID/g | tissue to tissue ratio at 0.5 h [4]: 13.6 | tissue to tissue ratio at 2 h [4]: 389 | tissue to tissue ratio at 4 h [4]: 146 | tissue to tissue ratio at 24 h [4]: 492 | tissue to tissue ratio at 0.5 h [5]: 2.31 | tissue to tissue ratio at 2 h [5]: 2.29 | tissue to tissue ratio at 4 h [5]: 2.09 | tissue to tissue ratio at 24 h [5]: 4.13 | tissue to tissue ratio at 0.5 h [6]: 14.4 | tissue to tissue ratio at 2 h [6]: 7.83 | tissue to tissue ratio at 4 h [6]: 8.62 | tissue to tissue ratio at 24 h [6]: 6 | tissue to tissue ratio at 0.5 h [7]: 30.7 | tissue to tissue ratio at 2 h [7]: 28.4 | tissue to tissue ratio at 4 h [7]: 23.8 | tissue to tissue ratio at 24 h [7]: 18.2 | tissue to tissue ratio at 0.5 h [8]: 32.5 | tissue to tissue ratio at 2 h [8]: 292 | tissue to tissue ratio at 4 h [8]: 879 | tissue to tissue ratio at 24 h [8]: 492 | tissue uptake dose at 2 h: 1.48 ± 0.17 %ID | tissue to tissue ratio at 2 h (Uptake ratio Tumor/kidney): 0.19 | tissue to tissue ratio at 2 h (Uptake ratio Tumor/liver): 0.92 | tissue to tissue ratio at 2 h (Uptake ratio Tumor/lung): 2.44
